Columns and labels:
[1] = biological target: 5'-AMP-activated protein kinase catalytic subunit alpha-1 (Homo sapiens) (UniProt Q13131); test: Binding affinity to wild-type human partial length AMPK alpha1 (M1 to E306 residues) expressed in bacterial expression system assessed as residual binding level at 10 uM by Kinomescan method relative to control
[2] = biological target: Protein-tyrosine kinase 6 (Homo sapiens) (UniProt Q13882); test: Binding affinity to wild-type human partial length BRK (L166 to T451 residues) expressed in bacterial expression system assessed as residual binding level at 10 uM by Kinomescan method relative to control
[3] = biological target: Calcium/calmodulin-dependent protein kinase type II subunit delta (Homo sapiens) (UniProt Q13557); test: Binding affinity to wild-type human partial length CAMK2D (M1 to E329 residues) expressed in bacterial expression system assessed as residual binding level at 10 uM by Kinomescan method relative to control
Chain of Calcium/calmodulin-dependent protein kinase type II subunit delta (Homo sapiens) (Q13557 whole entry, the tested form may be a part): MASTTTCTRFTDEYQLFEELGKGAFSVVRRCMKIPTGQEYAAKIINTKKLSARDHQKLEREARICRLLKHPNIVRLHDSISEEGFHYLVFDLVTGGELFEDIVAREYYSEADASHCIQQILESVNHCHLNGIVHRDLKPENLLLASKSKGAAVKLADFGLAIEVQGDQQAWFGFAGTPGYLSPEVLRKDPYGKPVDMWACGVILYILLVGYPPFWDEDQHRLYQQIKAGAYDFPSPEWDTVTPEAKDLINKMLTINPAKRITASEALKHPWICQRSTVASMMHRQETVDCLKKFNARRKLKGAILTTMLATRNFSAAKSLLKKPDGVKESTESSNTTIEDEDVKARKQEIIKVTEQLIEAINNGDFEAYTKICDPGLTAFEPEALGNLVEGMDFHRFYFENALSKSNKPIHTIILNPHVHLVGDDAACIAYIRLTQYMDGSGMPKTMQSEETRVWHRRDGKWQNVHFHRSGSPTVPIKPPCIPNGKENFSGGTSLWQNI

[4] = biological target: Calcium/calmodulin-dependent protein kinase kinase 2 (Homo sapiens) (UniProt Q96RR4); test: Binding affinity to wild-type human partial length CAMKK2 (D65 to V471 residues) expressed in bacterial expression system assessed as residual binding level at 10 uM by Kinomescan method relative to control
Chain of Calcium/calmodulin-dependent protein kinase kinase 2 (Homo sapiens) (Q96RR4 2-588 limits assumed): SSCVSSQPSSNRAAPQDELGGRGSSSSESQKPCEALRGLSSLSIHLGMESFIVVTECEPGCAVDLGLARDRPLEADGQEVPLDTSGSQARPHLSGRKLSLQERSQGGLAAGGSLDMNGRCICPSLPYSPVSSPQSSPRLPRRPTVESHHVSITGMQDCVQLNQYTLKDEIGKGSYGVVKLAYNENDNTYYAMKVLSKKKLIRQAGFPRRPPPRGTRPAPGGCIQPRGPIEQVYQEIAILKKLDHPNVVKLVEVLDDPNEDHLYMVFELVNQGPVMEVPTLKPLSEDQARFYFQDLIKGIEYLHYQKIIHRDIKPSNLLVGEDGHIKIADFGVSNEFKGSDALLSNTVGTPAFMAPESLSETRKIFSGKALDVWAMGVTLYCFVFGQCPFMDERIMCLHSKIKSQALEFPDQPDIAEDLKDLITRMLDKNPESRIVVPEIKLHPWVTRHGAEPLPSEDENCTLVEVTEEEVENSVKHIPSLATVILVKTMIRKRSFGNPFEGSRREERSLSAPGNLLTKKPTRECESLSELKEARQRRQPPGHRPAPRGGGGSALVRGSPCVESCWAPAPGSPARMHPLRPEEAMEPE

[5] = biological target: Cyclin-dependent kinase 11B (Homo sapiens) (UniProt P21127); test: Binding affinity to wild-type human partial length CDC2L1 (P353 to G692 residues) expressed in bacterial expression system assessed as residual binding level at 10 uM by Kinomescan method relative to control
[6] = biological target: Casein kinase I isoform gamma-1 (Homo sapiens) (UniProt Q9HCP0); test: Binding affinity to wild-type human partial length CSNK1G1 (T15 to S353 residues) expressed in bacterial expression system assessed as residual binding level at 10 uM by Kinomescan method relative to control
[7] = biological target: Ephrin type-A receptor 5 (Homo sapiens) (UniProt P54756); test: Binding affinity to wild-type human partial length EPHA5 (T627 to V930 residues) expressed in bacterial expression system assessed as residual binding level at 10 uM by Kinomescan method relative to control
Chain of Ephrin type-A receptor 5 (Homo sapiens) (P54756 whole entry, the tested form may be a part): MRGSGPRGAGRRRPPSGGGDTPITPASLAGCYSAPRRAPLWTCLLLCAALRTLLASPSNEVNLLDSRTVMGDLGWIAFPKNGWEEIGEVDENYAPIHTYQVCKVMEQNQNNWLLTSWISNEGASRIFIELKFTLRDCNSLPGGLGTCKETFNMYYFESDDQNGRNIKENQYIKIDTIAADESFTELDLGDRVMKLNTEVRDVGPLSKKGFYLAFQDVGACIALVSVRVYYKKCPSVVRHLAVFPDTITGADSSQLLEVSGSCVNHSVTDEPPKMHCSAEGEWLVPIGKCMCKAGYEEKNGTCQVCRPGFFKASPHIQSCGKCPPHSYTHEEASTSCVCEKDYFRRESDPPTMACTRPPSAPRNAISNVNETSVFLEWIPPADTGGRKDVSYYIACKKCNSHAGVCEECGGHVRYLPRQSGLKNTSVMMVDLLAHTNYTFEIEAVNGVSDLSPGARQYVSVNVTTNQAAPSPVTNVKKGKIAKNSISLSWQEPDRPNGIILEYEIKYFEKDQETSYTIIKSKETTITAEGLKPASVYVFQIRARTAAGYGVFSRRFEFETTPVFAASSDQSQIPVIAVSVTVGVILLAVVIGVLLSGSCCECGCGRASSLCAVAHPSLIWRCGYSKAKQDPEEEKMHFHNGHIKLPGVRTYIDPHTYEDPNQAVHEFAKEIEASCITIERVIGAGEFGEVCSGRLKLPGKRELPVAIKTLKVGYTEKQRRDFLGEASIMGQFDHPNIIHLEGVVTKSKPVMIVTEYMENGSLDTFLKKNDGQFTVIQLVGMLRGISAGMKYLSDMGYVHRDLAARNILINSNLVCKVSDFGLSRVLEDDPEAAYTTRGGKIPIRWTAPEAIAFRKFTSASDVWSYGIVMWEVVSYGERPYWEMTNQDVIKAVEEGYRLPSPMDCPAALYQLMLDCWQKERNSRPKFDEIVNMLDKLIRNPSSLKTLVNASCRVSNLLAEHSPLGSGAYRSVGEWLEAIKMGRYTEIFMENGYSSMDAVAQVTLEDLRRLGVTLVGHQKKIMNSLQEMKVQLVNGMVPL

[8] = biological target: Ephrin type-B receptor 3 (Homo sapiens) (UniProt P54753); test: Binding affinity to wild-type human partial length EPHB3 (Q599 to T928 residues) expressed in bacterial expression system assessed as residual binding level at 10 uM by Kinomescan method relative to control
[9] = biological target: Focal adhesion kinase 1 (Homo sapiens) (UniProt Q05397); test: Binding affinity to wild-type human partial length FAK (D402 to R696 residues) expressed in bacterial expression system assessed as residual binding level at 10 uM by Kinomescan method relative to control
[10] = biological target: Vascular endothelial growth factor receptor 3 (Homo sapiens) (UniProt P35916); test: Binding affinity to wild-type human partial length FLT4 (E821 to E1196 residues) expressed in bacterial expression system assessed as residual binding level at 10 uM by Kinomescan method relative to control
[11] = biological target: Interleukin-1 receptor-associated kinase 1 (Homo sapiens) (UniProt P51617); test: Binding affinity to wild-type human partial length IRAK1 (R194 to S712 residues) expressed in mammalian expression system assessed as residual binding level at 10 uM by Kinomescan method relative to control
Chain of Interleukin-1 receptor-associated kinase 1 (Homo sapiens) (P51617 whole entry, looked up, the tested form may be a part): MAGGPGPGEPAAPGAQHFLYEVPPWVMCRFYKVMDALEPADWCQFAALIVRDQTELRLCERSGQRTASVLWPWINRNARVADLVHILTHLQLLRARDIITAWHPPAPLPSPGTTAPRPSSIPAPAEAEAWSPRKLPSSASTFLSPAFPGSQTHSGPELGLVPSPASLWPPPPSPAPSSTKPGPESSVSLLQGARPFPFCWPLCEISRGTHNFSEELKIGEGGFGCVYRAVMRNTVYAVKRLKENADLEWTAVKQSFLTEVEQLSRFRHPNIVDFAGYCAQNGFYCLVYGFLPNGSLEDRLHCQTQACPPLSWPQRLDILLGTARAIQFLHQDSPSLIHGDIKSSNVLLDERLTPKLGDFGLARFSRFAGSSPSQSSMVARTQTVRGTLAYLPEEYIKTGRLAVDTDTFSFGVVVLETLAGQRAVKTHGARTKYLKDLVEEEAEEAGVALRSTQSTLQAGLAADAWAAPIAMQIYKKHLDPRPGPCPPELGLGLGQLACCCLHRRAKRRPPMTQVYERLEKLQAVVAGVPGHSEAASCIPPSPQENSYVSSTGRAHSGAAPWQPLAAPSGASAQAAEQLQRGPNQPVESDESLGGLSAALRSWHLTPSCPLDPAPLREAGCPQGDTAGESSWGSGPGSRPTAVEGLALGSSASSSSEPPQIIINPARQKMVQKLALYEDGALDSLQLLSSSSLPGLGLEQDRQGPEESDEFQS

[12] = biological target: Tyrosine-protein kinase JAK1 (Homo sapiens) (UniProt P23458); test: Binding affinity to wild-type human partial length JAK1 JH1 catalytic domain (V856 to K1154 residues) expressed in bacterial expression system assessed as residual binding level at 10 uM by Kinomescan method relative to control
Chain of Tyrosine-protein kinase JAK1 (Homo sapiens) (P23458 whole entry, the tested form may be a part): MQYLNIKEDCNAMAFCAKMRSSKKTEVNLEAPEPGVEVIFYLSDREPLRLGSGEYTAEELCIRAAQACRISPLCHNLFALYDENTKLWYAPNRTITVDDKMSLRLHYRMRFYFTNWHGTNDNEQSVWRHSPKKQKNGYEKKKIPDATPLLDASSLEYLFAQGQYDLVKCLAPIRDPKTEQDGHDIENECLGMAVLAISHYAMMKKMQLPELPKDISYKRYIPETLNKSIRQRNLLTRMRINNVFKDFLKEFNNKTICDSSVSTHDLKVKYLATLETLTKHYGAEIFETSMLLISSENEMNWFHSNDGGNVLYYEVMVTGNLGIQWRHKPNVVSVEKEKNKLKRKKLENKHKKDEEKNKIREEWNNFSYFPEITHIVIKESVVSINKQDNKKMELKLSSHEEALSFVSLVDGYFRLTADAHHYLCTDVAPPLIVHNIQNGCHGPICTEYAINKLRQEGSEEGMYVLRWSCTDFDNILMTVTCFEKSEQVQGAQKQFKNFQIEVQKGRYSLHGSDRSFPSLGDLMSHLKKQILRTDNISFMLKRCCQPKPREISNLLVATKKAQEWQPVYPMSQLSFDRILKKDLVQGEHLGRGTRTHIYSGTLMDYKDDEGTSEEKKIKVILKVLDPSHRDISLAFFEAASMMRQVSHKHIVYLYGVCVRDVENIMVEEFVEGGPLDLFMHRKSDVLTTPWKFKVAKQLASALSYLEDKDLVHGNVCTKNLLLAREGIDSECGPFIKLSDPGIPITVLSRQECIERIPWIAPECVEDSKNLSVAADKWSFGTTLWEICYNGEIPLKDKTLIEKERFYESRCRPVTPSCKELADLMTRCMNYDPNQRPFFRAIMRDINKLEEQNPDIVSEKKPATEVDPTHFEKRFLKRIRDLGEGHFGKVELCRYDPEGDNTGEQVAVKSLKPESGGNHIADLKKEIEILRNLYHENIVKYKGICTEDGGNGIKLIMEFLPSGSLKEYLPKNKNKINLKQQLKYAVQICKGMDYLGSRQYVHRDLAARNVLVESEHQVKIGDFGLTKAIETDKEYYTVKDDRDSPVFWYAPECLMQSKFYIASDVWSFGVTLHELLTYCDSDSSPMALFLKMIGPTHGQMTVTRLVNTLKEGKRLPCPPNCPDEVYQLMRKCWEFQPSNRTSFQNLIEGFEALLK

[13] = biological target: Tyrosine-protein kinase JAK3 (Homo sapiens) (UniProt P52333); test: Binding affinity to wild-type human partial length JAK3 JH1 catalytic domain (I781 to S1124 residues) expressed in mammalian expression system assessed as residual binding level at 10 uM by Kinomescan method relative to control
[14] = system: Mast/stem cell growth factor receptor Kit (Homo sapiens), P10721 [A829P]; test: Binding affinity to human partial length KIT A829P mutant (I571 to D952 residues) expressed in mammalian expression system assessed as residual binding level at 10 uM by Kinomescan method relative to control
[15] = biological target: Tyrosine-protein kinase Mer (Homo sapiens) (UniProt Q12866); test: Binding affinity to wild-type human partial length MERTK (R557 to L884 residues) expressed in bacterial expression system assessed as residual binding level at 10 uM by Kinomescan method relative to control
[16] = system: Hepatocyte growth factor receptor (Homo sapiens), P08581 [Y1235D]; test: Binding affinity to human partial length MET Y1235D mutant (D1010 to S1367 residues) expressed in bacterial expression system assessed as residual binding level at 10 uM by Kinomescan method relative to control
[17] = biological target: Myosin light chain kinase (Homo sapiens) (UniProt Q32MK0); test: Binding affinity to wild-type human partial length MLCK (D488 to K800 residues) expressed in bacterial expression system assessed as residual binding level at 10 uM by Kinomescan method relative to control
[18] = biological target: Cyclin-dependent kinase 17 (Homo sapiens) (UniProt Q00537); test: Binding affinity to wild-type human full length PCTK2 (M1 to F523 residues) expressed in bacterial expression system assessed as residual binding level at 10 uM by Kinomescan method relative to control
[19] = biological target: Platelet-derived growth factor receptor alpha (Homo sapiens) (UniProt P16234); test: Binding affinity to wild-type human partial length PDGFRA (V575 to D1002 residues) expressed in mammalian expression system assessed as residual binding level at 10 uM by Kinomescan method relative to control
Chain of Platelet-derived growth factor receptor alpha (Homo sapiens) (P16234 whole entry, the tested form may be a part): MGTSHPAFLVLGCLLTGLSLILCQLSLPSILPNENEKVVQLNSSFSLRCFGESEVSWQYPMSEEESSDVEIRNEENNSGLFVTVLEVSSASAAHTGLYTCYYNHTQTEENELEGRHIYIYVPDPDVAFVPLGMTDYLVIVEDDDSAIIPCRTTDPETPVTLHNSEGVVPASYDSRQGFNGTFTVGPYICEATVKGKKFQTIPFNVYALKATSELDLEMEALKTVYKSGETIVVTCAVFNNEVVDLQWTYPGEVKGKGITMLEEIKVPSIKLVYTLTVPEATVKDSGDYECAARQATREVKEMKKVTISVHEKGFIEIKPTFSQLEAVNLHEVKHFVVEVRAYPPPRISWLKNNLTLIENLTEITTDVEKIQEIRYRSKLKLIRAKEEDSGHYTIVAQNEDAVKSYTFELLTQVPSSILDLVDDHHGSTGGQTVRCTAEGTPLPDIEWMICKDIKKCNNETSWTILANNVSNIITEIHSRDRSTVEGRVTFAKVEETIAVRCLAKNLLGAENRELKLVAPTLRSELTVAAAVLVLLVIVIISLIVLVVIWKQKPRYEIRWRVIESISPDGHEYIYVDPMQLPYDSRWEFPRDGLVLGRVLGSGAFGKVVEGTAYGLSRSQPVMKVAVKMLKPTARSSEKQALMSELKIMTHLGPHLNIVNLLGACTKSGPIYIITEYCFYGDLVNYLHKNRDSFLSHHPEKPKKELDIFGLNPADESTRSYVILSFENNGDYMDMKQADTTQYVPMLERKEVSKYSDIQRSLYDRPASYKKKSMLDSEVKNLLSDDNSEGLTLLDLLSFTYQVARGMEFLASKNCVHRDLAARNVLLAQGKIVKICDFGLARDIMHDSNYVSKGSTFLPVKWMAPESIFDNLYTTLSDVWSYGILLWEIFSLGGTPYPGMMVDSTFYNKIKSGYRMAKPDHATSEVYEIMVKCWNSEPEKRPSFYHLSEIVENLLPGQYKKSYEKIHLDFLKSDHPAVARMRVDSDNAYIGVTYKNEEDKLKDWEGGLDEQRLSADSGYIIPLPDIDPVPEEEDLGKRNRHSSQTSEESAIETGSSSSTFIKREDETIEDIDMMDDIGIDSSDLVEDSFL

[20] = biological target: Membrane-associated tyrosine- and threonine-specific cdc2-inhibitory kinase (Homo sapiens) (UniProt Q99640); test: Binding affinity to wild-type human partial length PKMYT1 (A88 to G366 residues) expressed in bacterial expression system assessed as residual binding level at 10 uM by Kinomescan method relative to control
[21] = biological target: cGMP-dependent protein kinase 1 (Homo sapiens) (UniProt Q13976); test: Binding affinity to wild-type human partial length PRKG1 (L339 to F686 residues) expressed in bacterial expression system assessed as residual binding level at 10 uM by Kinomescan method relative to control
[22] = biological target: Proto-oncogene tyrosine-protein kinase ROS (Homo sapiens) (UniProt P08922); test: Binding affinity to wild-type human partial length ROS1 (A1921 to N2240 residues) expressed in bacterial expression system assessed as residual binding level at 10 uM by Kinomescan method relative to control
[23] = biological target: Tyrosine-protein kinase Srms (Homo sapiens) (UniProt Q9H3Y6); test: Binding affinity to wild-type human partial length SRMS (L208 to P488 residues) expressed in mammalian expression system assessed as residual binding level at 10 uM by Kinomescan method relative to control
[24] = biological target: Testis-specific serine/threonine-protein kinase 1 (Homo sapiens) (UniProt Q9BXA7); test: Binding affinity to wild-type human full length TSSK1B (M1 to Q367 residues) expressed in bacterial expression system assessed as residual binding level at 10 uM by Kinomescan method relative to control
[25] = Stability of compound in D2O at 0.012 mmol followed by H2O2 addition measured after 2 hrs by 1H-NMR spectroscopy; type: physicochemical

CC(C)N1C(=O)C(NCCCN(C)C)=C(c2cn(C)c3ccccc23)C1=O.Cl showed an Activity [1] of 93%, an Activity [2] of 100% and an Activity [3] of 98%. It also gave an Activity [4] of 69%, an Activity [5] of 96% and an Activity [6] of 89%. For the same compound, the Activity [7] was 96%, the Activity [8] was 99% and the Activity [9] was 100%. It also gave an Activity [10] of 99%, an Activity [11] of 66% and an Activity [12] of 89%. For the same compound, the Activity [13] was 81%, the Activity [14] was 100% and the Activity [15] was 71%. The Activity [16] was 99%, the Activity [17] was 89% and the Activity [18] was 99%. The Activity [19] was 86%, the Activity [20] was 88% and the Activity [21] was 91%. For the same compound, the Activity [22] was 87%, the Activity [23] was 82% and the Activity [24] was 100%. For the same compound, the Stability [25] was “Stable”.
